# Test results: PubChem BioAssay (NCI)
#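 Exposure lasted 48 hours, with cells grown in 96-well plates and compounds tested at five concentrations. At the GI50, growth is halved. The concentration for full growth arrest is given as TGI.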
# What was measured:
# Test in all cases: DTP human tumour cell line panel, 48 h
# 786-0 renal = system: 786-0 renal
# A498 renal = system: A498 renal
# A549 NSCLC = system: A549 NSCLC
# ACHN renal = system: ACHN renal
# BT-549 breast = system: BT-549 breast
# CAKI-1 renal = system: CAKI-1 renal
# COLO 205 colon = system: COLO 205 colon
# DU-145 prostate = system: DU-145 prostate
# EKVX NSCLC = system: EKVX NSCLC
# HCC-2998 colon = system: HCC-2998 colon
# HCT-116 colon = system: HCT-116 colon
# HCT-15 colon = system: HCT-15 colon
# HOP-62 NSCLC = system: HOP-62 NSCLC
# HOP-92 NSCLC = system: HOP-92 NSCLC
# HS 578T breast = system: HS 578T breast
# HT29 colon = system: HT29 colon
# IGROV1 ovarian = system: IGROV1 ovarian
# K-562 leukemia = system: K-562 leukemia
# KM12 colon = system: KM12 colon
# LOX IMVI melanoma = system: LOX IMVI melanoma
# M14 melanoma = system: M14 melanoma
# MCF7 breast = system: MCF7 breast
# MDA-MB-231 breast = system: MDA-MB-231 breast
# MDA-MB-435 = system: MDA-MB-435
# MOLT-4 leukemia = system: MOLT-4 leukemia
# NCI-H226 lung = system: NCI-H226 lung
# NCI-H23 lung = system: NCI-H23 lung
# NCI-H460 lung = system: NCI-H460 lung
# NCI-H522 lung = system: NCI-H522 lung
# NCI/ADR-RES ovarian = system: NCI/ADR-RES ovarian
# OVCAR-3 ovarian = system: OVCAR-3 ovarian
# OVCAR-4 ovarian = system: OVCAR-4 ovarian
# OVCAR-5 ovarian = system: OVCAR-5 ovarian
# OVCAR-8 ovarian = system: OVCAR-8 ovarian
# PC-3 prostate = system: PC-3 prostate
# RPMI-8226 leukemia = system: RPMI-8226 leukemia
# RXF 393 renal = system: RXF 393 renal
# SF-268 CNS = system: SF-268 CNS
# SF-295 CNS = system: SF-295 CNS
# SK-MEL-2 melanoma = system: SK-MEL-2 melanoma
# SK-MEL-28 melanoma = system: SK-MEL-28 melanoma
# SK-MEL-5 melanoma = system: SK-MEL-5 melanoma
# SK-OV-3 ovarian = system: SK-OV-3 ovarian
# SN12C renal = system: SN12C renal
# SNB-19 CNS = system: SNB-19 CNS
# SNB-75 CNS = system: SNB-75 CNS
# SW-620 colon = system: SW-620 colon
# T-47D breast = system: T-47D breast
# TK-10 renal = system: TK-10 renal
# U251 CNS = system: U251 CNS
# UACC-257 melanoma = system: UACC-257 melanoma
# UACC-62 melanoma = system: UACC-62 melanoma
# CCRF-CEM leukemia = system: CCRF-CEM leukemia
# HL-60(TB) leukemia = system: HL-60(TB) leukemia
# MALME-3M melanoma = system: MALME-3M melanoma
# SF-539 CNS = system: SF-539 CNS
# SR leukemia = system: SR leukemia
# UO-31 renal = system: UO-31 renal
compound,measurement,setting,value
CCOC(=O)C1=C(C)N(Cc2ccc(Cl)cc2Cl)C2(O)C=CC(=O)C3=C(O)c4ccccc4C(=O)C312 (centres undefined),GI50,786-0 renal,3.54 µM
same,TGI,786-0 renal,15.2 µM
same,GI50,A498 renal,23.7 µM
same,TGI,A498 renal,59.4 µM
same,GI50,A549 NSCLC,9.35 µM
same,TGI,A549 NSCLC,> 100 µM
same,GI50,ACHN renal,3.82 µM
same,TGI,ACHN renal,18.2 µM
same,GI50,BT-549 breast,21.6 µM
same,TGI,BT-549 breast,> 100 µM
same,GI50,CAKI-1 renal,3.31 µM
same,TGI,CAKI-1 renal,15 µM
same,GI50,COLO 205 colon,4.41 µM
same,TGI,COLO 205 colon,20.6 µM
same,GI50,DU-145 prostate,7.99 µM
same,TGI,DU-145 prostate,28.8 µM
same,GI50,EKVX NSCLC,10.6 µM
same,TGI,EKVX NSCLC,47.8 µM
same,GI50,HCC-2998 colon,11.2 µM
same,TGI,HCC-2998 colon,28.2 µM
same,GI50,HCT-116 colon,3.19 µM
same,TGI,HCT-116 colon,11.6 µM
same,GI50,HCT-15 colon,1.82 µM
same,TGI,HCT-15 colon,13.5 µM
same,GI50,HOP-62 NSCLC,3.56 µM
same,TGI,HOP-62 NSCLC,15 µM
same,GI50,HOP-92 NSCLC,1.23 µM
same,TGI,HOP-92 NSCLC,5.48 µM
same,GI50,HS 578T breast,16.1 µM
same,TGI,HS 578T breast,96.3 µM
same,GI50,HT29 colon,5.04 µM
same,TGI,HT29 colon,> 100 µM
same,GI50,IGROV1 ovarian,8.62 µM
same,TGI,IGROV1 ovarian,> 100 µM
same,GI50,K-562 leukemia,4.85 µM
same,TGI,K-562 leukemia,> 100 µM
same,GI50,KM12 colon,4.02 µM
same,TGI,KM12 colon,16.8 µM
same,GI50,LOX IMVI melanoma,2.75 µM
same,TGI,LOX IMVI melanoma,16.1 µM
same,GI50,M14 melanoma,3.97 µM
same,TGI,M14 melanoma,69.3 µM
same,GI50,MCF7 breast,2.65 µM
same,TGI,MCF7 breast,40.1 µM
same,GI50,MDA-MB-231 breast,3.96 µM
same,TGI,MDA-MB-231 breast,12.8 µM
same,GI50,MDA-MB-435,3.87 µM
same,TGI,MDA-MB-435,13.4 µM
same,GI50,MOLT-4 leukemia,3.87 µM
same,TGI,MOLT-4 leukemia,> 100 µM
same,GI50,NCI-H226 lung,3.77 µM
same,TGI,NCI-H226 lung,27.8 µM
same,GI50,NCI-H23 lung,3.61 µM
same,TGI,NCI-H23 lung,16.1 µM
same,GI50,NCI-H460 lung,5.55 µM
same,TGI,NCI-H460 lung,43.2 µM
same,GI50,NCI-H522 lung,11.4 µM
same,TGI,NCI-H522 lung,> 100 µM
same,GI50,NCI/ADR-RES ovarian,888 nM
same,TGI,NCI/ADR-RES ovarian,10.3 µM
same,GI50,OVCAR-3 ovarian,2.2 µM
same,TGI,OVCAR-3 ovarian,6 µM
same,GI50,OVCAR-4 ovarian,11.5 µM
same,TGI,OVCAR-4 ovarian,> 100 µM
same,GI50,OVCAR-5 ovarian,9.59 µM
same,TGI,OVCAR-5 ovarian,30.1 µM
same,GI50,OVCAR-8 ovarian,7.17 µM
same,TGI,OVCAR-8 ovarian,91.2 µM
same,GI50,PC-3 prostate,2.16 µM
same,TGI,PC-3 prostate,10.5 µM
same,GI50,RPMI-8226 leukemia,3.29 µM
same,TGI,RPMI-8226 leukemia,13 µM
same,GI50,RXF 393 renal,11.1 µM
same,TGI,RXF 393 renal,66.5 µM
same,GI50,SF-268 CNS,6.72 µM
same,TGI,SF-268 CNS,37.5 µM
same,GI50,SF-295 CNS,3.07 µM
same,TGI,SF-295 CNS,14.9 µM
same,GI50,SK-MEL-2 melanoma,38.4 µM
same,TGI,SK-MEL-2 melanoma,> 100 µM
same,GI50,SK-MEL-28 melanoma,10.6 µM
same,TGI,SK-MEL-28 melanoma,40.1 µM
same,GI50,SK-MEL-5 melanoma,7.38 µM
same,TGI,SK-MEL-5 melanoma,23.3 µM
same,GI50,SK-OV-3 ovarian,17.4 µM
same,TGI,SK-OV-3 ovarian,91.7 µM
same,GI50,SN12C renal,3.39 µM
same,TGI,SN12C renal,15.4 µM
same,GI50,SNB-19 CNS,9.02 µM
same,TGI,SNB-19 CNS,78.7 µM
same,GI50,SNB-75 CNS,16.9 µM
same,TGI,SNB-75 CNS,> 100 µM
same,GI50,SW-620 colon,4.74 µM
same,TGI,SW-620 colon,> 100 µM
same,GI50,T-47D breast,6.83 µM
same,TGI,T-47D breast,39.7 µM
same,GI50,TK-10 renal,3.78 µM
same,TGI,TK-10 renal,10.8 µM
same,GI50,U251 CNS,3.53 µM
same,TGI,U251 CNS,15.8 µM
same,GI50,UACC-257 melanoma,10.9 µM
same,TGI,UACC-257 melanoma,61.2 µM
same,GI50,UACC-62 melanoma,4.72 µM
same,TGI,UACC-62 melanoma,18.9 µM
NS(=O)(=O)NCCNc1nonc1C(=Nc1ccc(F)c(Br)c1)NO,GI50,786-0 renal,48.8 µM
same,TGI,786-0 renal,> 100 µM
same,GI50,A549 NSCLC,68.9 µM
same,TGI,A549 NSCLC,> 100 µM
same,GI50,ACHN renal,31.2 µM
same,TGI,ACHN renal,> 100 µM
same,GI50,BT-549 breast,40.9 µM
same,TGI,BT-549 breast,> 100 µM
same,GI50,CAKI-1 renal,33.8 µM
same,TGI,CAKI-1 renal,> 100 µM
same,GI50,CCRF-CEM leukemia,49.8 µM
same,TGI,CCRF-CEM leukemia,> 100 µM
same,GI50,COLO 205 colon,47.6 µM
same,TGI,COLO 205 colon,> 100 µM
same,GI50,DU-145 prostate,51.2 µM
same,TGI,DU-145 prostate,> 100 µM
same,GI50,EKVX NSCLC,34.8 µM
same,TGI,EKVX NSCLC,> 100 µM
same,GI50,HCC-2998 colon,27.4 µM
same,TGI,HCC-2998 colon,77.5 µM
same,GI50,HCT-116 colon,42.6 µM
same,TGI,HCT-116 colon,> 100 µM
same,GI50,HCT-15 colon,39.4 µM
same,TGI,HCT-15 colon,> 100 µM
same,GI50,HL-60(TB) leukemia,36.9 µM
same,TGI,HL-60(TB) leukemia,> 100 µM
same,GI50,HOP-62 NSCLC,> 100 µM
same,TGI,HOP-62 NSCLC,> 100 µM
same,GI50,HOP-92 NSCLC,23.6 µM
same,TGI,HOP-92 NSCLC,86.2 µM
same,GI50,HS 578T breast,30.3 µM
same,TGI,HS 578T breast,> 100 µM
same,GI50,HT29 colon,66 µM
same,TGI,HT29 colon,> 100 µM
same,GI50,IGROV1 ovarian,52.3 µM
same,TGI,IGROV1 ovarian,> 100 µM
same,GI50,K-562 leukemia,35.4 µM
same,TGI,K-562 leukemia,> 100 µM
same,GI50,KM12 colon,34.8 µM
same,TGI,KM12 colon,> 100 µM
same,GI50,LOX IMVI melanoma,27.9 µM
same,TGI,LOX IMVI melanoma,> 100 µM
same,GI50,M14 melanoma,28.1 µM
same,TGI,M14 melanoma,> 100 µM
same,GI50,MALME-3M melanoma,28.5 µM
same,TGI,MALME-3M melanoma,> 100 µM
same,GI50,MCF7 breast,32.9 µM
same,TGI,MCF7 breast,> 100 µM
same,GI50,MDA-MB-231 breast,34 µM
same,TGI,MDA-MB-231 breast,> 100 µM
same,GI50,MDA-MB-435,32 µM
same,TGI,MDA-MB-435,> 100 µM
same,GI50,MOLT-4 leukemia,30.8 µM
same,TGI,MOLT-4 leukemia,> 100 µM
same,GI50,NCI-H226 lung,47.7 µM
same,TGI,NCI-H226 lung,> 100 µM
same,GI50,NCI-H23 lung,28.9 µM
same,TGI,NCI-H23 lung,> 100 µM
same,GI50,NCI-H460 lung,35.9 µM
same,TGI,NCI-H460 lung,> 100 µM
same,GI50,NCI-H522 lung,36.2 µM
same,TGI,NCI-H522 lung,97.5 µM
same,GI50,NCI/ADR-RES ovarian,> 100000 nM
same,TGI,NCI/ADR-RES ovarian,> 100 µM
same,GI50,OVCAR-3 ovarian,34.6 µM
same,TGI,OVCAR-3 ovarian,> 100 µM
same,GI50,OVCAR-4 ovarian,32.8 µM
same,TGI,OVCAR-4 ovarian,> 100 µM
same,GI50,OVCAR-5 ovarian,69.4 µM
same,TGI,OVCAR-5 ovarian,> 100 µM
same,GI50,OVCAR-8 ovarian,56.5 µM
same,TGI,OVCAR-8 ovarian,> 100 µM
same,GI50,PC-3 prostate,31.8 µM
same,TGI,PC-3 prostate,> 100 µM
same,GI50,RPMI-8226 leukemia,37.9 µM
same,TGI,RPMI-8226 leukemia,> 100 µM
same,GI50,SF-268 CNS,38.8 µM
same,TGI,SF-268 CNS,> 100 µM
same,GI50,SF-295 CNS,27 µM
same,TGI,SF-295 CNS,> 100 µM
same,GI50,SF-539 CNS,37.5 µM
same,TGI,SF-539 CNS,> 100 µM
same,GI50,SK-MEL-2 melanoma,27.8 µM
same,TGI,SK-MEL-2 melanoma,97 µM
same,GI50,SK-MEL-28 melanoma,48.3 µM
same,TGI,SK-MEL-28 melanoma,> 100 µM
same,GI50,SK-MEL-5 melanoma,31.9 µM
same,TGI,SK-MEL-5 melanoma,> 100 µM
same,GI50,SK-OV-3 ovarian,67.4 µM
same,TGI,SK-OV-3 ovarian,> 100 µM
same,GI50,SN12C renal,41.3 µM
same,TGI,SN12C renal,> 100 µM
same,GI50,SNB-19 CNS,48.2 µM
same,TGI,SNB-19 CNS,> 100 µM
same,GI50,SNB-75 CNS,15.2 µM
same,TGI,SNB-75 CNS,> 100 µM
same,GI50,SR leukemia,30.2 µM
same,TGI,SR leukemia,> 100 µM
same,GI50,SW-620 colon,51.1 µM
same,TGI,SW-620 colon,> 100 µM
same,GI50,T-47D breast,35.1 µM
same,TGI,T-47D breast,> 100 µM
same,GI50,TK-10 renal,29.8 µM
same,TGI,TK-10 renal,> 100 µM
same,GI50,U251 CNS,53.1 µM
same,TGI,U251 CNS,> 100 µM
same,GI50,UACC-62 melanoma,25.9 µM
same,TGI,UACC-62 melanoma,> 100 µM
same,GI50,UO-31 renal,24.8 µM
same,TGI,UO-31 renal,> 100 µM
